Values after ≈ are worked out from the molar mass of the structure shown.

One data set relates to Neisseria gonorrhoeae. The note with it: cited from earlier work.
Data set [1] deals with PA-1 (ovary cancer) cells. As to the kind of experiment: In-vitro anticancer MTT assay, PA-1. The format is cell-based, human. The note with it: 90% inhibition of cell growth vs untreated control, 6 h exposure, then 48 h. On the procedure:
(§1) The following six human cancer cell lines were procured from the Cell Repository of the National Center for Cell Sciences (NCCS) at Pune. Their corresponding ATCC No. and the organ from which they were isolated are also mentioned in the table described below:
(§2) Cytotoxicity testing in vitro was done by the method of (Woerdenbag et al., 1993; J. Nat. Prod. 56 (6): 849-856). 2×10^3 cells/well were incubated in the 5% CO2 incubator for 24 h to enable them to adhere properly to the 96 well polystyrene microplate (Grenier, Germany). Test compounds dissolved in 100% DMSO in at least five doses were added and left for 6 h after which the compound plus media was replaced with fresh media and the cells were incubated for another 48 h in the CO2 incubator at 37° C.
(§3) Then, 10 μl MTT [3-(4,5-dimethylthiazol-2-yl)-2,5-diphenyltetrazolium bromide; Sigma M 2128] was added, and plates were incubated at 37° C. for 4 h. 100 μl dimethyl sulfoxide (DMSO, Merck, Germany) were added to all wells and mixed thoroughly to dissolve the dark blue crystals. After a few minutes at room temperature to ensure that all crystals were dissolved, the plates were read on a SpectraMax 190 Microplate Elisa reader (Molecular Devices Inc., USA), at 570 nm. Plates were normally read within 1 h of adding the DMSO. The experiment was done in triplicate and the inhibitory concentration (IC) values were calculated as follows: % inhibition=[1-OD (570 nm) of sample well/OD (570 nm) of control well]×100. IC90 is the concentration μg/ml required for 90% inhibition of cell growth as compared to that of untreated control. […] It was also found to be active against breast adenocarcinoma, liver and ovarian cancer cell lines at 20-60 μg/ml.
(§4) IC90: Concentration required to inhibit 90% of cell growth as compared to that of control.
For orientation: Tetrazolium dyes change colour on reduction, which living cells bring about.

Data set [2] deals with WRL-68 (liver cancer) cells. As to the kind of experiment: In-vitro anticancer MTT assay, WRL-68. The format is cell-based. The note with it: Homo sapiens, WRL68, 90% inhibition of cell growth vs untreated control, 6 h exposure, then 48 h, read-out: Inhibitory Concentration (IC90) WRL-68. On the procedure: as §1, §2
(§5) Then, 10 μl MTT [3-(4,5-dimethylthiazol-2-yl)-2,5-diphenyltetrazolium bromide; Sigma M 2128] was added, and plates were incubated at 37° C. for 4 h. […] After a few minutes at room temperature to ensure that all crystals were dissolved, the plates were read on a SpectraMax 190 Microplate Elisa reader (Molecular Devices Inc., USA), at 570 nm. Plates were normally read within 1 h of adding the DMSO. The experiment was done in triplicate and the inhibitory concentration (IC) values were calculated as follows: % inhibition=[1-OD (570 nm) of sample well/OD (570 nm) of control well]×100. […]

The test system of data set [3] is breast adenocarcinoma, liver and ovarian cancer cell lines. As to the kind of experiment: In-vitro anticancer MTT assay, summary over three cell lines. The format is cell-based. The note with it: Homo sapiens, range over three cell lines, read-out: active concentration (IC90) against breast adenocarcinoma, liver and ovarian cancer cell lines. On the procedure:
as §1, §2, §5

In data set [4] the test system is MCF-7 (breast cancer) cells. The data set can be described thus: In-vitro anticancer MTT assay, MCF-7. The data set is classed as cell-based, human. The note with it: 6 h exposure, then 48 h; for IC90: Homo sapiens, MCF7, 90% inhibition of cell growth vs untreated control, read-out: Inhibitory Concentration (IC90) MCF-7. As for the experimental part:
as §1, §2, §3, §4

Data set [5] relates to Caco-2 (colon adenocarcinoma) cells. The data set can be described thus: In-vitro anticancer MTT assay, Caco-2. The data set is classed as cell-based, human. The note with it: for IC90: Homo sapiens, Caco-2, read-out: Inhibitory Concentration (IC90) Caco-2; for Inhibitory Concentration (IC90) Caco-2: MTT assay, 90% inhibition of cell growth vs untreated control, 6 h exposure, then 48 h. As for the experimental part: as §1, §2, §3, §4

Data set [6] concerns BT-20 human breast carcinoma cells. The note with it: cited from earlier work.
For data set [7], the system named is TA98 and TA100 strains of salmonella typhimurium. The note with it: cited from earlier work.

As to `O=c1cc(-c2ccc(O)c(O)c2)oc2cc(O)cc(O)c12` [Luteolin], the “activity against pathogenic bacteria” value in the data set with Neisseria gonorrhoeae is “specific activity”.

As to `CC1(C)CCC2(C(=O)O)CCC3(C)C(=CCC4C5(C)CC(O)C(O)C(C)(C)C5CCC43C)C2C1O` (racemic) [Arjunic acid, 2±,3^2,19±-tri-hydroxy-olea-12-en-28-oic acid], the IC90 in data set [1] (Homo sapiens, read-out: Inhibitory Concentration (IC90) PA-1) was 60 µg/mL (≈ 123 µM); in data set [2], 20 µg/mL (≈ 40.9 µM); in data set [3], 20 to 60 µg/mL (≈ 40.9 to 123 µM); in data set [4], 50 µg/mL (≈ 102 µM); in data set [5], 4.5 µg/mL (≈ 9.21 µM).

With `O=C(O[C@H]1[C@@H]2OC(=O)c3cc(O)c(O)c(O)c3-c3c(O)c(O)c4oc(=O)c5c(c(O)c(O)c6oc(=O)c3c4c65)-c3c(cc(O)c(O)c3O)C(=O)OC[C@H]2OC(O)[C@@H]1O)c1cc(O)c(O)c(O)c1` (stereo partly drawn) [Arjunin], in data set [6], the IC50 (usually the concentration that inhibits the measured activity by half) was 6500 µg/mL (≈ 6950 µM) and the cytotoxic activity result is “moderate cytotoxic activity”.

`CC1(C)CC[C@]2(C(=O)O[C@@H]3O[C@H](CO)[C@@H](O)[C@H](O)[C@H]3O)CC[C@]3(C)C(=CC[C@@H]4[C@@]5(C)C[C@@H](O)[C@H](O)[C@@](C)(CO)[C@@H]5CC[C@]43C)[C@@H]2[C@@H]1O` [Arjunglucoside-I, arjunglucoside-I]: in data set [1], the “Inhibitory Concentration (IC90) PA-1” value was over 50 µg/mL. Further, the “Inhibitory Concentration (IC90) Caco-2” value in data set [5] was over 50 µg/mL.

As for arjungenin, the “Inhibitory Concentration (IC90) PA-1” value in data set [1] is 60 µg/mL. Besides, in data set [4] (90% inhibition of cell growth vs untreated control), the “Inhibitory Concentration (IC90) MCF-7” value was over 50 µg/mL. Also, the “Inhibitory Concentration (IC90) Caco-2” value in data set [5] amounted to 50 µg/mL.

Regarding `O=c1oc2c(O)c(O)cc3c(=O)oc4c(O)c(O)cc1c4c23` [Ellagic acid], in data set [7], the “antimutagenic effect against 59-dependent 2AF” value is on record as “quit effective” and the “antimutagenic effect against NPD” value was “moderate effect”.

For the molecule `CC1(C)CCC2(C(=O)OC3OC(CO)C(O)C(O)C3O)CCC3(C)C(=CCC4C5(C)CC(O)C(O)C(C)(C)C5CCC43C)C2C1O` (stereo not drawn) [Arjunetin, arjunetin], the IC90 was determined as 20 µg/mL (≈ 30.7 µM) in data set [2], 50 µg/mL (≈ 76.8 µM) in data set [4] and 10 µg/mL (≈ 15.4 µM) in data set [5].

Values taken from US7435433B2, “Process for the isolation of oleane compounds isolated from the bark of arjun tree terminalia arjuna (Roxb.)” (Council of Scientific & Industrial Research, priority 2005, dated 2008).
